Drawing on patent publication US20160159814A1, “GLYCINE TRANSPORTER INHIBITOR” (TAISHO PHARMACEUTICAL CO., LTD., priority 2013, published 2016), this text covers IC50 for 29 compounds.

For the first assay, the target named is T1, human type 1 glycine transporter (GlyT1) (Homo sapiens, UniProt P48067).
T1 construct: T98G cells (glioma cells) expressing human type 1 glycine transporter (GlyT1) were used; endogenous in cells; host or cells: T98G cells (human glioma cells)
T1 sequence (P48067 1-706): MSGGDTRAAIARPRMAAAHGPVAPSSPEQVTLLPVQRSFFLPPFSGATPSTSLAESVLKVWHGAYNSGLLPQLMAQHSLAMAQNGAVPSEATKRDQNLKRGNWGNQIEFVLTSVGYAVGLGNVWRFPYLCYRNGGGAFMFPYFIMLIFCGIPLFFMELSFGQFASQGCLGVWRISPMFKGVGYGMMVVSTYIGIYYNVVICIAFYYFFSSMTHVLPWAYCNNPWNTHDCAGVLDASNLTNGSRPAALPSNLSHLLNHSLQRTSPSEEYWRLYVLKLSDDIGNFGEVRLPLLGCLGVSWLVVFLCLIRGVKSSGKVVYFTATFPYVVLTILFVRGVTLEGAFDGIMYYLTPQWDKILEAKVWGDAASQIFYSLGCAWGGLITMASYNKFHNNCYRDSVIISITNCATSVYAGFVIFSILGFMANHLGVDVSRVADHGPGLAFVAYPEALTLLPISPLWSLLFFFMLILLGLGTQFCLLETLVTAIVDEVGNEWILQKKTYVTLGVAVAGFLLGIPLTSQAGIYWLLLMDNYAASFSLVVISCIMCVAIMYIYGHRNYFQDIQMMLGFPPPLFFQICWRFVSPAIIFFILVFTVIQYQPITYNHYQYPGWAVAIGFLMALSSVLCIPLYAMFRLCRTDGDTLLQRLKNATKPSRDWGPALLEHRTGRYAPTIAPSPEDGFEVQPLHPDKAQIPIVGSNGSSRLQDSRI
Kind of assay: Glycine uptake inhibition experiment ([3H] glycine uptake in T98G cells expressing GlyT1). Type of assay: cell-based.
Details: not given
A digest of the protocol: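 T98G glioma cells expressing human GlyT1 were pretreated 10 min with compound in HEPES buffer pH 7.4 (0.2% BSA), then incubated with compound plus 250 nM final [3H]glycine for 15 min at room temperature. Intracellular radioactivity was counted after NaOH lysis; 10 μM ALX5407 defined non-specific uptake. IC50 came from 10^−9–10^−5 M curves.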
On to `C[C@H](O)c1cccc2c1C(F)(F)C(=O)N2Cc1ccnc(C2CC2)c1` [Compound 175, 1-[(2-cyclopropylpyridin-4-yl)methyl]-3,3-difluoro-4-[(1S)-1-hydroxyethyl]-1,3-dihydro-2H-indol-2-one], for which the IC50 (in general, the concentration at which inhibition is half-maximal) turned out to be 0.023 µM.

In turn, `COc1cc(CN2C(=O)C(F)(F)c3c([C@@H](O)C(F)(F)F)cccc32)ccn1` [Compound 166, 3,3-difluoro-1-[(2-methoxypyridin-4-yl)methyl]-4-[(1R)-2,2,2-trifluoro-1-hydroxyethyl]-1,3-dihydro-2H-indol-2-one] showed a concentration for half-maximal inhibition (IC50) of 0.026 µM.

Turning to `O=C1N(Cc2ccc(Cl)cn2)c2cccc(C(O)C(F)F)c2C1(F)F` (single isomer, unassigned) [Compound 162, 1-[(5-chloropyridin-2-yl)methyl]-4-(2,2-difluoro-1-hydroxyethyl)-3,3-difluoro-1,3-dihydro-2H-indol-2-one], the IC50 was found to be 0.22 µM.

As to `COc1cccnc1CN1C(=O)C(F)(F)c2c([C@H](C)O)cccc21` [Compound 247, 3,3-difluoro-4-[(1S)-1-hydroxyethyl]-1-[(3-methoxypyridin-2-yl)methyl]-1,3-dihydro-2H-indol-2-one], the IC50 is 0.58 µM.

Consider `C[C@H](O)c1cccc2c1C(F)(F)C(=O)N2Cc1ncc(C(F)(F)F)cc1Cl` [Compound 221, 1-{[3-chloro-5-(trifluoromethyl)pyridin-2-yl]methyl)-3,3-difluoro-4-[(1S)-1-hydroxyethyl]-1,3-dihydro-2H-indol-2-one], for which the midpoint of inhibition, the IC50, lay at 0.033 µM.

In turn, `O=C1N(Cc2nc3cc(F)ccc3o2)c2cccc(C(O)C(F)F)c2C1(F)F` (single isomer, unassigned) [Compound 171, 4-(2,2-difluoro-1-hydroxyethyl)-3,3-difluoro-1-[(5-fluoro-1,3-benzoxazol-2-yl)methyl]-1,3-dihydro-2H-indol-2-one] displayed a half-inhibitory concentration (IC50) of 0.17 µM.

In turn, `C[C@H](O)c1cccc2c1C(F)(F)C(=O)N2Cc1cnc(Cl)cc1Cl` [Compound 223, 1-[(4,6-dichloropyridin-3-yl)methyl]-3,3-difluoro-4-[(1S)-1-hydroxyethyl]-1,3-dihydro-2H-indol-2-one] returned an IC50 of 0.066 µM.

Take `C[C@H](O)c1cccc2c1C(F)(F)C(=O)N2Cc1ncccc1Br` [Compound 211, 1-[(3-bromopyridin-2-yl)methyl]-3,3-difluoro-4-[(1S)-1-hydroxyethyl]-1,3-dihydro-2H-indol-2-one]: the 50% inhibitory concentration (IC50) came out at 0.085 µM.

In turn, `O=C1N(Cc2ccc(Cl)nc2)c2cccc(C(O)C(F)F)c2C1(F)F` (single isomer, unassigned) [Compound 160, 1-[(6-chloropyridin-3-yl)methyl]-4-(2,2-difluoro-1-hydroxyethyl)-3,3-difluoro-1,3-dihydro-2H-indol-2-one] yielded a 50% inhibitory concentration (IC50) of 0.35 µM.

As to `C[C@H](O)c1cccc2c1C(F)(F)C(=O)N2Cc1ccc(F)c(C#N)n1` [Compound 236, 6-({3,3-difluoro-4-[(1S)-1-hydroxyethyl]-2-oxo-2,3-dihydro-1H-indol-1-yl}methyl)-3-fluoropyiidine-2-carbonitrile], inhibition was half-maximal at 0.004 µM (IC50).

`C[C@H](O)c1cccc2c1C(F)(F)C(=O)N2Cc1cnc(F)c(Br)c1` [Compound 228, 1-[(5-bromo-6-fluoropyridin-3-yl)methyl]-3,3-difluoro-4-[(1S)-1-hydroxyethyl]-1,3-dihydro-2H-indol-2-one] came in with a half-inhibitory concentration (IC50) of 0.0021 µM.

In turn, `N#Cc1cccc(CN2C(=O)C(F)(F)c3c(C(O)C(F)F)cccc32)n1` (single isomer, unassigned) [Compound 176, 6-{[4-(2,2-difluoro-1-hydroxyethyl)-3,3-difluoro-2-oxo-2,3-dihydro-1H-indol-1-yl]methyl}pyridine-2-carbonitrile] yielded an IC50 of 0.041 µM.

As for `N#Cc1cncc(CN2C(=O)C(F)(F)c3c(C(O)C(F)F)cccc32)c1` (single isomer, unassigned) [Compound 164, 5-{[4-(2,2-difluoro-1-hydroxyethyl)-3,3-difluoro-2-oxo-2,3-dihydro-1H-indol-1-yl]methyl}pyridine-3-carbonitrile], the IC50 is 0.46 µM.

The same assay, now with this note: glycine uptake inhibition.
In the case of `C[C@H](O)c1cccc2c1C(F)(F)C(=O)N2Cc1ccc(C(F)(F)F)cn1` [Compound 112, 3,3-difluoro-4-[(1S)-1-hydroxyethyl]-1-{[5-(trifluoromethyl)pyridin-2-yl]methyl}-1,3-dihydro-2H-indol-2-one], the half-inhibitory concentration (IC50) came out at 0.029 µM.

Compound `O=C1N(Cc2cncc(Cl)c2)c2ccc(F)c(C(O)C(F)(F)F)c2C1(F)F` (single isomer, unassigned) [Compound 50, 1-[(5-chloropyridin-3-yl)methyl]-3,3,5-trifluoro-4-(2,2,2-trifluoro-1-hydroxyethyl)-1,3-dihydro-2H-indol-2-one] yielded an IC50 of 0.17 µM.

`O=C1N(Cc2cncc(-n3nccn3)c2)c2cccc(C(O)C(F)F)c2C1(F)F` (single isomer, unassigned) [Compound 148, 4-(2,2-difluoro-1-hydroxyethyl)-3,3-difluoro-1-{[5-(2H-1,2,3-triazol-2-yl)pyridin-3-yl]methyl}-1,3-dihydro-2H-indol-2-one] yielded an IC50 of 0.039 µM.

Take `O=C1N(Cc2ccnc(-n3nccn3)c2)c2cccc(C(O)C(F)F)c2C1(F)F` (single isomer, unassigned) [Compound 147, 4-(2,2-difluoro-1-hydroxyethyl)-3,3-difluoro-1-{[2-(2H-1,2,3-triazol-2-yl)pyridin-4-yl]methyl}-1,3-dihydro-2H-indol-2-one]: the midpoint of inhibition, the IC50, lay at 0.36 µM.

The compound `O=C1N(Cc2cncc(Cl)c2)c2ccc(F)c(C(O)C(F)(F)F)c2C1(F)F` (single isomer, unassigned) [Compound 49, 1-[(5-chloropyridin-3-yl)methyl]-3,3,5-trifluoro-4-(2,2,2-trifluoro-1-hydroxyethyl)-1,3-dihydro-2H-indol-2-one] displayed an IC50 of 1.5 µM.

On to `COc1ccc(CN2C(=O)C(F)(F)c3c([C@H](C)O)cccc32)nc1` [Compound 106, 3,3-difluoro-4-[(1S)-1-hydroxyethyl]-1-[(5-methoxypydin-2-yl)methyl]-1,3-dihydro-2H-indol-2-one], for which the concentration for half-maximal inhibition (IC50) was found to be 0.81 µM.

`O=C1N(Cc2ccnc(Cl)c2)c2cccc(C(O)C(F)F)c2C1(F)F` (single isomer, unassigned) [Compound 35] had an IC50 of 0.28 µM.

The compound `C[C@H](O)c1cccc2c1C(F)(F)C(=O)N2Cc1cccc(C(F)F)n1` [Compound 82, 1-{[6-(difluoromethyl)pyridin-2-yl]methyl}-3,3-difluoro-4-[(1S)-1-hydroxyethyl]-1,3-dihydro-2H-indol-2-one] showed a half-maximal inhibitory concentration (IC50) of 0.044 µM.

The compound `CC(C)(O)c1cccc2c1C(F)(F)C(=O)N2Cc1cccc(Cl)n1` [Compound 12, 1-[(6-chloropyridin-2-yl)methyl]-3,3-difluoro-4-(2-hydroxypropan-2-yl)-1,3-dihydro-2H-indol-2-one] yielded a concentration for half-maximal inhibition (IC50) of 0.7 µM.

In turn, `C[C@H](O)c1cccc2c1C(F)(F)C(=O)N2Cc1ccc(F)cn1` [Compound 114, 3,3-difluoro-1-[(5-fluoropyridin-2-yl)methyl]-4-[(1S)-1-hydroxyethyl]-1,3-dihydro-2H-indol-2-one] showed an IC50 of 0.061 µM.

Turning to `C[C@H](O)c1cccc2c1C(F)(F)C(=O)N2Cc1ccc2cc[nH]c2n1` [Compound 115, 3,3-difluoro-4-[(1S)-1-hydroxyethyl]-1-(1H-pyrrolo[2,3-b]pyridin-6-ylmethyl)-1,3-dihydro-2H-indol-2-one], half-maximal inhibition (IC50) required 0.098 µM.

The compound `O=C1N(Cc2cccc(C(F)F)n2)c2cccc(C(O)C(F)F)c2C1(F)F` (single isomer, unassigned) [Compound 153, 4-(2,2-difluoro-1-hydroxyethyl)-1-{[6-(difluoromethyl)pyridin-2-yl]methyl}-3,3-difluoro-1,3-dihydro-2H-indol-2-one] registered an IC50 of 0.13 µM.

In turn, `C[C@H](O)c1cccc2c1C(F)(F)C(=O)N2Cc1ccc2nonc2c1` [Compound 76, 1-(2,1,3-benzoxadiazol-5-ylmethyl)-3,3-difluoro-4-[(1S)-1-hydroxyethyl]-1,3-dihydro-2H-indol-2-one] showed an IC50 of 0.0087 µM.

The compound `N#Cc1cc(CN2C(=O)C(F)(F)c3c(C(O)C(F)F)cccc32)ccn1` (single isomer, unassigned) [Compound 110, 4-{[4-(2,2-difluoro-1-hydroxyethyl)-3,3-difluoro-2-oxo-2,3-dihydro-1H-indol-1-yl]methyl}pyridine-2-carbonitrile] came in with an IC50 of 2.1 µM.

Still in this assay, the particulars now being: table section whose head prints (μm).
For `C[C@H](O)c1cccc2c1C(F)(F)C(=O)N2Cc1cc(C#N)c(F)cn1` [Compound 262, 2-{(3,3-difluoro-4-[(1S)-1-hydroxyethyl]-2-oxo-2,3-dihydro-1H-indol-1-yl}methyl)-5-fluoropyridine-4-carbonitrile], the IC50 stood at 0.062 µM.

`N#Cc1nccc(CN2C(=O)C(F)(F)c3c(C(O)C(F)F)cccc32)c1Cl` (single isomer, unassigned) [Compound 267] gave a concentration for half-maximal inhibition (IC50) of 0.26 µM.
